Experimental data: patent US7951814B2, “Quinazolinedione derivatives as TRPA1 modulators” (Glenmark Pharmaceuticals, S.A., priority 2008, dated 2011)

Biological target: T1, Human TRPA1 expressing CHO cells (Homo sapiens, UniProt O75762)
T1 construct: expressed in transfected cells; host or cells: CHO cells (under G-418 selection)
Experiment: 45Calcium uptake assay: inhibition of AITC induced cellular uptake of radioactive calcium
Type: cell-based
Conditions: AITC 30 μM, human TRPA1 CHO cells; for inhibition at 1 µM: 1.0 μM test compound, read-out: Percentage inhibition at 1.0 μM; for inhibition at 10 µM: 10.0 μM test compound, read-out: Percentage inhibition at 10.0 μM; for IC50: read-out: IC50 value (range)
Method: The illustrative examples of the present invention are screened for TRPA1 activity according to a modified procedure described in (a) Tóth, A. et al. Life Sciences (2003), 73, 487-498. ([…]. et al. Proc. Natl. Acad. Sci. U.S.A., (2007), 104, 13525-13530. The screening of the compounds can be carried out by other methods and procedures known to persons skilled in the art. Screening for TRPA1 Antagonist Using the ^45Calcium Uptake Assay The inhibition of TRPA1 receptor activation was measured as inhibition of allyl isothiocyanate (AITC) induced cellular uptake of radioactive calcium. […] Final concentration of DMSO in the reaction was 0.5% (v/v). […] Cells were seeded 24 h prior to the assay in 96 well plates so as to get 50,000 cells per well on the day of experiment. Cells were treated with test compounds for 10 min followed by addition of AITC at a final concentration of 30 μM and 5 μCi/ml ^45Ca^+2 for 3 min. […] Radioactivity in the lysate was measured in Packard Top count after addition of liquid scintillant. Concentration response curves were plotted as a % of maximal response obtained in the absence of test antagonist. IC50 value was calculated from concentration response curve by nonlinear regression analysis using GraphPad PRISM software.

T1 sequence (O75762 whole entry): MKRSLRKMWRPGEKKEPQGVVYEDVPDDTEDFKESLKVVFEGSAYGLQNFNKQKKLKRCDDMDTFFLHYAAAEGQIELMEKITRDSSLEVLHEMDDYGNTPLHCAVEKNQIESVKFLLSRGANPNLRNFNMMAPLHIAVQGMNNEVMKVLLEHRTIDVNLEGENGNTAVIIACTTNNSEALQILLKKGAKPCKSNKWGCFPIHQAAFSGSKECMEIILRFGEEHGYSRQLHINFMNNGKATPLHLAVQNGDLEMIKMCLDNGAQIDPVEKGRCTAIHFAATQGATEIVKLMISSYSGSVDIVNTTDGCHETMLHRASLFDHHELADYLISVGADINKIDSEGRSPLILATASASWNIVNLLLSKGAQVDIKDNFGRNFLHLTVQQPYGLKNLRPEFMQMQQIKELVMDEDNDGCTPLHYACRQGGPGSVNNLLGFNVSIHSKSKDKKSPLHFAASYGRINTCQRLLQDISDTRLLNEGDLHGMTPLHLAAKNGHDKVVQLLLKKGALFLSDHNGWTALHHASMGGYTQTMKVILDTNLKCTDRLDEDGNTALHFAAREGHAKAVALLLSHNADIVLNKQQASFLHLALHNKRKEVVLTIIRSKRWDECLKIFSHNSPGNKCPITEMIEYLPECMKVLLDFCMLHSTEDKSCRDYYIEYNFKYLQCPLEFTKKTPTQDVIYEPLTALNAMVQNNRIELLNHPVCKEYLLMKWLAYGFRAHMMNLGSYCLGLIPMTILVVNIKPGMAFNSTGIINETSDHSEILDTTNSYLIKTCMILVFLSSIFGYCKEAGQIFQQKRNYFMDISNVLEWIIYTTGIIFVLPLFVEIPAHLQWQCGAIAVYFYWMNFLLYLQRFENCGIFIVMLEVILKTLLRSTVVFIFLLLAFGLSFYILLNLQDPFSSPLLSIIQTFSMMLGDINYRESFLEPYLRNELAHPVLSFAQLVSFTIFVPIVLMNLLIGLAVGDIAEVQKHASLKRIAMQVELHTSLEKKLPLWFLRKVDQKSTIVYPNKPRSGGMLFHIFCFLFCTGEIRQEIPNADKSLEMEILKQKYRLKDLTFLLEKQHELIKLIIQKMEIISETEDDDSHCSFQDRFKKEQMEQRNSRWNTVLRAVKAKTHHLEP

Cn1c(=O)c2c(CC(=O)Nc3ccc(-c4ccc(Br)cc4)cc3)cccc2n(C)c1=O [Example 2, N1-[4-(4-Bromophenyl)phenyl]-2-(1,3-dimethyl-2,4-dioxo-1,2,3,4-tetrahydro-5-quinazolinyl)acetamide]
inhibition at 1 µM: 25.3% | inhibition at 10 µM: 50.8%

Cc1ccc(Oc2ccc(NC(=O)Cc3cccc4c3c(=O)n(C)c(=O)n4C)cc2)cc1 [Example 3, N1-[4-(4-Methylphenoxy)phenyl]-2-(1,3-dimethyl-2,4-dioxo-1,2,3,4-tetrahydro-5-quinazolinyl)acetamide]
inhibition at 1 µM: 7.98% | inhibition at 10 µM: 31.6%

Cn1c(=O)c2c(CC(=O)Nc3cccc(-c4ccc(Cl)cc4)n3)cccc2n(C)c1=O [Example 4, N1-[6-(4-chlorophenyl)-2-pyridyl]-2-(1,3-dimethyl-2,4-dioxo-1,2,3,4-tetrahydro-5-quinazolinyl)acetamide]
inhibition at 1 µM: 60.7% | inhibition at 10 µM: 95.2%

Cn1c(=O)c2c(CC(=O)Nc3ccc(-c4ccc(Cl)cc4)cn3)cccc2n(C)c1=O [Example 5, N1-[5-(4-chlorophenyl)-2-pyridyl]-2-(1,3-dimethyl-2,4-dioxo-1,2,3,4-tetrahydro-5-quinazolinyl)acetamide]
inhibition at 1 µM: 52.2% | inhibition at 10 µM: 71.5%

Cn1c(=O)c2c(CC(=O)Nc3cccc(-c4ccc(C(F)(F)F)cc4)n3)cccc2n(C)c1=O [Example 6, N1-[6-(4-Trifluoromethylphenyl)-2-pyridyl]-2-(1,3-dimethyl-2,4-dioxo-1,2,3,4-tetrahydro-5-quinazolinyl)acetamide]
inhibition at 1 µM: 71.3% | inhibition at 10 µM: 88.2%

Cn1c(=O)c2c(CC(=O)Nc3nc(C4CCCCC4)cs3)cccc2n(C)c1=O [Example 7, N1-[4-(4-Cyclohexyl)-1,3-thiazol-2yl]-2-(1,3-dimethyl-2,4-dioxo-1,2,3,4-tetrahydro-5-quinazolinyl)acetamide]
inhibition at 1 µM: 62.2% | inhibition at 10 µM: 60.5%

Cn1c(=O)c2c(CC(=O)Nc3nc(-c4ccccc4)cs3)cccc2n(C)c1=O [Example 8, N1-[4-phenyl-1,3-thiazol-2-yl]-2-(1,3-dimethyl-2,4-dioxo-1,2,3,4-tetrahydro-5-quinazolinyl)acetamide]
inhibition at 1 µM: 52.9% | inhibition at 10 µM: 79.9%

Cn1c(=O)c2c(CC(=O)Nc3nc(-c4ccc(F)cc4)cs3)cccc2n(C)c1=O [Example 9, N1-[4-(4-Fluorophenyl)-1,3-thiazol-2yl]-2-(1,3-dimethyl-2,4-dioxo-1,2,3,4-tetrahydro-5-quinazolinyl)acetamide]
inhibition at 1 µM: 30.8% | inhibition at 10 µM: 43.8%

Cn1c(=O)c2c(CC(=O)Nc3nc(-c4cccc(Cl)c4)cs3)cccc2n(C)c1=O [Example 11, N1-[4-(3-Chlorophenyl)-1,3-thiazol-2yl]-2-(1,3-dimethyl-2,4-dioxo-1,2,3,4-tetrahydro-5-quinazolinyl)acetamide]
inhibition at 1 µM: 95.5% | inhibition at 10 µM: 99.1% | IC50: > 0.1 µM

Cn1c(=O)c2c(CC(=O)Nc3nc(-c4ccc(Br)cc4)cs3)cccc2n(C)c1=O [Example 12]
inhibition at 1 µM: 98.7% | inhibition at 10 µM: 99.2% | IC50: 0.0501 to 0.1 µM

Cn1c(=O)c2c(CC(=O)Nc3nc(-c4ccc(I)cc4)cs3)cccc2n(C)c1=O [Example 13, N1-[4-(4-Iodophenyl)-1,3-thiazol-2yl]-2-(1,3-dimethyl-2,4-dioxo-1,2,3,4-tetrahydro-5-quinazolinyl)acetamide]
inhibition at 1 µM: 79.2% | inhibition at 10 µM: 94.7% | IC50: 0.0501 to 0.1 µM

Cn1c(=O)c2c(CC(=O)Nc3nc(-c4ccc(C(F)(F)F)cc4)cs3)cccc2n(C)c1=O [Example 14, N1-[4-(4-Trifluromethylphenyl)-1,3-thiazol-2yl]-2-(1,3-dimethyl-2,4-dioxo-1,2,3,4-tetrahydro-5-quinazolinyl)acetamide]
inhibition at 1 µM: 97.9% | inhibition at 10 µM: 99.1% | IC50: < 0.05 µM

Cn1c(=O)c2c(CC(=O)Nc3nc(-c4cccc(OC(F)(F)F)c4)cs3)cccc2n(C)c1=O [Example 16, N1-[4-(3-Trifluoromethoxyphenyl)-1,3-thiazol-2-yl]-2-(1,3-dimethyl-2,4-dioxo-1,2,3,4-tetrahydro-5-quinazolinyl)acetamide]
inhibition at 1 µM: 95.6% | inhibition at 10 µM: 99.7% | IC50: < 0.05 µM

COc1ccc(-c2csc(NC(=O)Cc3cccc4c3c(=O)n(C)c(=O)n4C)n2)cc1 [Example 17, N1-[4-(4-Methoxyphenyl)-1,3-thiazol-2-yl]-2-(1,3-dimethyl-2,4-dioxo-1,2,3,4-tetrahydro-5-quinazolinyl)acetamide]
inhibition at 1 µM: 30% | inhibition at 10 µM: 75.9%

Cn1c(=O)c2c(CC(=O)Nc3nc(-c4ccc(C5CCCCC5)cc4)cs3)cccc2n(C)c1=O [Example 18, N1-[4-(4-Cyclohexylphenyl)-1,3-thiazol-2yl]-2-(1,3-dimethyl-2,4-dioxo-1,2,3,4-tetrahydro-5-quinazolinyl)acetamide]
inhibition at 1 µM: 79.3% | inhibition at 10 µM: 88.3% | IC50: < 0.05 µM

CC(C)CCOc1ccc(-c2csc(NC(=O)Cc3cccc4c3c(=O)n(C)c(=O)n4C)n2)cc1 [Example 19, N1-[4-(4-(3-Methylbutoxy)phenyl)-1,3-thiazol-2-yl]-2-(1,3-dimethyl-2,4-dioxo-1,2,3,4-tetrahydro-5-quinazolinyl)acetamide]
inhibition at 1 µM: 93% | inhibition at 10 µM: 97.9% | IC50: 0.0501 to 0.1 µM

Cn1c(=O)c2c(CC(=O)Nc3nc(-c4ccc(C(C)(C)C)cc4)cs3)cccc2n(C)c1=O [Example 20, N1-[4-(4-tert-Butylphenyl)-1,3-thiazol-2-yl]-2-(1,3-dimethyl-2,4-dioxo-1,2,3,4-tetrahydro-5-quinazolinyl)acetamide]
inhibition at 1 µM: 98.9% | inhibition at 10 µM: 99.8% | IC50: 0.0501 to 0.1 µM

CC(C)Cc1ccc(-c2csc(NC(=O)Cc3cccc4c3c(=O)n(C)c(=O)n4C)n2)cc1 [Example 21]
inhibition at 1 µM: 95.7% | inhibition at 10 µM: 99.7% | IC50: < 0.05 µM

CC(C)c1ccc(-c2csc(NC(=O)Cc3cccc4c3c(=O)n(C)c(=O)n4C)n2)cc1 [Example 22, N1-[4-(4-isopropylphenyl)-1,3-thiazol-2-yl]-2-(1,3-dimethyl-2,4-dioxo-1,2,3,4-tetrahydro-5-quinazolinyl)acetamide]
inhibition at 1 µM: 95.3% | inhibition at 10 µM: 98% | IC50: 0.0501 to 0.1 µM

CCc1ccc(-c2csc(NC(=O)Cc3cccc4c3c(=O)n(C)c(=O)n4C)n2)cc1 [Example 23]
inhibition at 1 µM: 96.2% | inhibition at 10 µM: 96.9% | IC50: 0.0501 to 0.1 µM

Cc1ccc(-c2csc(NC(=O)Cc3cccc4c3c(=O)n(C)c(=O)n4C)n2)cc1 [Example 24, N1-[4-(4-Methylphenyl)-1,3-thiazol-2yl]-2-(1,3-dimethyl-2,4-dioxo-1,2,3,4-tetrahydro-5-quinazolinyl)acetamide]
inhibition at 1 µM: 83.9% | inhibition at 10 µM: 96.8% | IC50: 0.0501 to 0.1 µM

CCn1c(=O)c2c(CC(=O)Nc3nc(-c4ccc(Cl)cc4)cs3)cccc2n(CC)c1=O [Example 25, N1-[4-(4-Chlorophenyl)-1,3-thiazol-2-yl]-2-(1,3-diethyl-2,4-dioxo-1,2,3,4-tetrahydro-5-quinazolinyl)acetamide]
inhibition at 1 µM: 20.4% | inhibition at 10 µM: 30.8%

CCCn1c(=O)c2c(CC(=O)Nc3nc(-c4cccc(C(F)(F)F)c4)cs3)cccc2n(CCC)c1=O [Example 26, N1-[4-(3-Trifluoromethylphenyl)-1,3-thiazo-2-yl]-2-(1,3-dipropyl-2,4-dioxo-1,2,3,4-tetrahydro-5-quinazolinyl)acetamide]
inhibition at 1 µM: 13.6% | inhibition at 10 µM: 5.39%

Cn1c(=O)n(CC2CC2)c(=O)c2c(CC(=O)Nc3nc(-c4ccc(C(C)(C)C)cc4)cs3)cccc21 [Example 27, N1-[4-(4-tert-Butylphenyl)-1,3-thiazol-2-yl]-2-(1-methyl-3-cyclopropylmethyl-2,4-dioxo-1,2,3,4-tetrahydro-5-quinazolinyl)acetamide]
inhibition at 1 µM: 17.2% | inhibition at 10 µM: 29.6%

CCOC(=O)n1c(=O)[nH]c2cccc(CC(=O)Nc3nc(-c4ccc(Cl)cc4)cs3)c2c1=O [Example 28]
inhibition at 1 µM: 2.8% | inhibition at 10 µM: 6.54%

O=C(Cc1cccc2[nH]c(=O)[nH]c(=O)c12)Nc1nc(-c2ccc(Cl)cc2)cs1 [Example 29, N1-[4-(4-Chlorophenyl)-1,3-thiazol-2-yl]-2-(2,4-dioxo-1,2,3,4-tetrahydro-5-quinazolinyl)acetamide]
inhibition at 1 µM: 20.9% | inhibition at 10 µM: 47.7%

Cc1sc(NC(=O)Cc2cccc3c2c(=O)n(C)c(=O)n3C)nc1-c1ccc(Cl)cc1 [Example 30, N1-[4-(4-Chlorophenyl)-5-methyl-1,3-thiazolyl]-2-(1,3-dimethyl-2,4-dioxo-1,2,3,4-tetrahydro-5-quinazolinyl)acetamide]
inhibition at 1 µM: 37.3% | inhibition at 10 µM: 91%

Cn1c(=O)c2c(CC(=O)Nc3nc(-c4ccc(F)cc4F)cs3)cccc2n(C)c1=O [Example 31, N1-[4-(2,4-Difluorophenyl)-1,3-thiazol-2-yl]-2-(1,3-dimethyl-2,4-dioxo-1,2,3,4-tetrahydro-5-quinazolinyl)acetamide]
inhibition at 1 µM: 90.1% | inhibition at 10 µM: 97.9% | IC50: < 0.05 µM
